Measured values from paper PMC9963121, “Development of Combretastatin A-4 Analogues as Potential Anticancer Agents with Improved Aqueous Solubility” (Molecules, 2023).
Structures can show the parent of a compound that is named as a salt.

Key:
AGS gastric cancer cell = assay: MTT cell growth inhibition assay, AGS gastric cancer cells; assay type: cell-based; details: Homo sapiens, mean ± SD of three experiments
Excerpt: (§1) Initially, we designed and synthesised seven compounds—9a and 12a1–12a6—and evaluated the anticancer activity and aqueous solubility. We evaluated the cytotoxic effects of these stilbene nitrile analogues against a panel of four human cancer cell lines (HCT-116, BEL-7402, MCF-7 and AGS) and two human non-cancerous normal cell lines (L-02 and MCF-10A), using CA-4 as a control. The compounds were screened for aqueous solubility in 0.01 M PBS using a high throughput UV method. […] It is possible that the size of the nitrogen heterocycle had little effect on the activity of these compounds. […] The aqueous solubility of all the compounds 12a1–12a6 was higher than that of 9a, particularly that of 12a1 and 12a2 containing piperazine rings. […] Of the six compounds with improved aqueous solubility, 12a1 had the best activity.
(§2) All human cell lines were used in this study. AGS gastric cancer cell, BEL-7402 liver cancer cell, HCT-116 colorectal cancer cell, L-02 normal liver cell, MCF-7 breast cancer cell, and MCF-10A normal breast cell were initially purchased from American Type Culture Collection (ATCC, Manassas, VA, USA). RPMI-1640 media, DMEM and FBS, were provided by Gibco Company. The cells were maintained in DMEM or RPMI-1640, supplemented with 10% FBS, 100 IU/mL penicillin and […] streptomycin, and at 37 °C in a humidified atmosphere containing 5% CO2.
(§3) The experiment was carried out according to the method of reference.

MCF-7 breast cancer cell = assay: MTT cell growth inhibition assay, MCF-7 breast cancer cells; assay type: cell-based; details: Homo sapiens, MCF7, mean ± SD of three experiments
Excerpt: as §1, §2, §3

[1] = system: HCT-116 colorectal cancer cell; assay: MTT cell growth inhibition assay, HCT-116 colorectal cancer cells; assay type: cell-based, human; details: Homo sapiens, HCT-116; MTT; mean ± SD of three experiments
Excerpt: as §1, §2, §3

[2] = system: BEL-7402 liver cancer cell; assay: MTT cell growth inhibition assay, BEL-7402 liver cancer cells; assay type: cell-based; details: Homo sapiens, mean ± SD of three experiments, read-out: IC50 BEL-7402 Hepatoma Cells
Excerpt: as §1, §2, §3

[3] = system: MCF-10A normal breast cell; assay: MTT cell growth inhibition assay, MCF-10A normal breast cells; assay type: cell-based; details: Homo sapiens, mean ± SD of three experiments, read-out: IC50 MCF-10A Normal Breast Epithelial Cells
Excerpt: as §1, §2, §3

L-02 normal liver cell = assay: MTT cell growth inhibition assay, L-02 normal liver cells; assay type: cell-based; details: Homo sapiens, mean ± SD of three experiments
Excerpt: as §1, §2, §3

[4] = Aqueous solubility in 0.01 M PBS, high throughput UV method; assay type: physicochemical; details: for solubility thermodynamic at 1.5 h: aqueous phosphate buffer, aqueous buffer, sodium phosphate buffer 0.01 M, pH 7.4, 22 ± 2 °C, mean ± SD
Excerpt: as §1
The aqueous solubility was determined as a previously reported procedure. Put simply, a certain amount of powdered compound was placed in a 2 mL centrifuge tube and mixed with an appropriate volume of aqueous phosphate buffer (10 mM, pH 7.4) to make the whole system supersaturated. The mixtures were sonicated (KQ5200DE numerical control ultrasonic cleaner, Kunshan Ultrasonic Instrument Co., Ltd., SuZhou, China) for 20 min. After sonication, the mixture was allowed to equilibrate at RT (22 ± 2 °C) for 1.5 h with vortex shaking (1200 rpm). Then centrifuged at 3000 rpm for 15 min (1-14k, sigma, Darmstadt, Germany), the supernatant was filtered with a 0.22 µM filter membrane. And then, take 150 µL of filtrate and add it to 96-well UV plate with triplicate. Draw 150 μL of blank solution was added into plate as blank control. The 96-well UV plate prepared above was read on a Synergy HTX Multifunctional Microplate Reader (BioTek, Vermont, USA) at 294 nm. The absorbance of the sample was corrected according to the UV response of the sample and blank solution, and the corrected UV response values were used for solubility calculations by bringing into the standard curve of the compound. […]
1.5. Solubility Assessment
The aqueous solubility was determined as previously reported using the high throughput solubility screens procedure published by Bruno Bard et al [9. 10]. Put simply, a certain amount of powdered compound was placed in a 2 ml centrifuge tube and mixed with an appropriate volume of aqueous phosphate buffer (0.01 M, pH 7.4) to make the whole system supersaturated. The mixtures were sonicated (KQ5200DE numerical control ultrasonic cleaner, Kunshan Ultrasonic Instrument Co., Ltd., China) for 20 min. After sonication, the mixture was allowed to equilibrate at room temperature (22 ± 2°C) for 1.5 h with vortex shaking (1200 rpm). Then the centrifuge tube was put into the centrifuge (1-14k, sigma, Germany), centrifuged with 3000 rpm for 15 minutes, 0.22 µM filter membrane filtration supernatant, then take 150 µl filtrate and add it to 96-well UV plate, with three well for each compound. Draw 150 μL blank solution were added into 96 well-plate as blank control. The 96-well UV […]
plate prepared above was read on a SynergyHTX Multifunctional microplate reader (BioTek, USA) at 338 nm (compounds 12a-12d and 15-20) or 370 nm (compounds 9a-d). The absorbance of the sample was corrected according to the UV response of the sample and blank solution, and the corrected UV responses value were used for solubility calculations by bring into the standard curve of the compound. […]

| Compound | melting point | IC50 (AGS gastric cancer cell) | IC50 (MCF-7 breast cancer cell) | IC50 [1] | IC50 [2] | IC50 [3] | IC50 (L-02 normal liver cell) | solubility thermodynamic at 1.5 h [4] | Decrease of aqueous solubility compared with 9a ([4]; ratio to 9a) | Water solubility (in words) ([4]; Figure 1) | Increase of aqueous solubility compared with 9a ([4]; 0.01 M PBS, ratio to 9a) |
| --- | --- | --- | --- | --- | --- | --- | --- | --- | --- | --- | --- |
| COc1cc(/C(C#N)=C/c2ccc(NC(=O)CN3CCN(CCOCCO)CC3)cc2)cc(OC)c1OC (as salt: hydrochloride) [compound 16] | 240 to 243 °C | – | – | – | – | – | – | – | – | – | – |
| COc1cc(/C(C#N)=C/c2ccc(NC(=O)CN3CCN[C@@H](C)C3)cc2)cc(OC)c1OC (as salt: hydrochloride) [compound 17] | 196 to 200 °C | – | – | – | – | – | – | – | – | – | – |
| COc1cc(/C(C#N)=C/c2ccc(N)cc2C)cc(OC)c1OC [9b] | 224 to 230 °C | 0.8 ± 0.14 µM | > 100 µM | 0.16 ± 0.02 µM | 0.16 ± 0.02 µM | > 100 µM | 6.01 ± 1.35 µM | 1.2 ± 0.3 µg/mL | nine times | – | – |
| COc1ccc(/C(C#N)=C/c2ccc(N)cc2)cc1OC [9c] | – | 19.5 ± 3.61 µM | 62.1 ± 8.12 µM | 4.05 ± 0.72 µM | 3.91 ± 0.8 µM | > 100 µM | 15.7 ± 1.79 µM | 4.5 ± 0.6 µg/mL | – | – | – |
| COc1ccc(/C(C#N)=C/c2ccc(N)cc2C)cc1OC [9d, (Z)-3-(4-Amino-2-methylphenyl)-2-(3,4-dimethoxyphenyl)acrylonitrile monohydrochloride] | – | 16.4 ± 0.42 µM | > 100 µM | 5.86 ± 0.77 µM | 9.72 ± 0.9 µM | > 100 µM | 62.1 ± 10.6 µM | 1.7 ± 0.2 µg/mL | – | – | – |
| CCN1CCN(CC(=O)Nc2ccc(/C=C(\C#N)c3cc(OC)c(OC)c(OC)c3)cc2)CC1 [12a2] | – | 11.9 ± 2.62 µM | 14.9 ± 1.32 µM | 5.37 ± 0.03 µM | 5.1 ± 0.37 µM | 25.8 ± 3.73 µM | 16.6 ± 1.14 µM | 26940 ± 78.8 µg/mL | – | – | – |
| COc1cc(/C(C#N)=C/c2ccc(NC(=O)CN3CCCC3)cc2)cc(OC)c1OC [12a3] | – | 17.9 ± 1.75 µM | 12.6 ± 0.91 µM | 2.56 ± 0.58 µM | 4.63 ± 0.89 µM | 16.9 ± 1.24 µM | 11 ± 0.82 µM | 67.4 ± 2.9 µg/mL | – | – | – |
| CCN(CC)CC(=O)Nc1ccc(/C=C(\C#N)c2cc(OC)c(OC)c(OC)c2)cc1 [12a4] | – | 12.6 ± 1.79 µM | 13.3 ± 2.59 µM | 5.64 ± 0.15 µM | 3.81 ± 0.43 µM | 24.8 ± 4.44 µM | 69.4 ± 7.3 µM | 15.5 ± 2.3 µg/mL | – | – | – |
| COc1cc(/C(C#N)=C/c2ccc(NC(=O)CN3CCOCC3)cc2)cc(OC)c1OC [12a5] | – | 29.1 ± 1.98 µM | 48.3 ± 5.41 µM | 6.87 ± 1.04 µM | 6.74 ± 1.97 µM | > 100 µM | 40.7 ± 5.18 µM | 15 ± 2.6 µg/mL | – | – | – |
| COc1cc(/C(C#N)=C/c2ccc(NC(=O)CN3CCN(C)CC3)cc2C)cc(OC)c1OC [12b1] | – | 15.6 ± 0.73 µM | 22.5 ± 3.6 µM | 5.25 ± 1.6 µM | 6.62 ± 2.09 µM | 15.2 ± 0.66 µM | 20.3 ± 1.08 µM | 104 ± 19.8 µg/mL | – | – | – |
| CCN1CCN(CC(=O)Nc2ccc(/C=C(\C#N)c3cc(OC)c(OC)c(OC)c3)c(C)c2)CC1 [12b2] | – | 15 ± 2.32 µM | 19.8 ± 3.16 µM | 6.68 ± 1.1 µM | 7.42 ± 1.76 µM | 20.2 ± 2.4 µM | 22.1 ± 2.05 µM | 253 ± 30.7 µg/mL | – | – | – |
| COc1ccc(/C(C#N)=C/c2ccc(NC(=O)CN3CCN(C)CC3)cc2)cc1OC [12c1] | – | 29.1 ± 1.98 µM | 33.9 ± 2.22 µM | 4.4 ± 0.79 µM | 8.95 ± 1.37 µM | > 100 µM | 23.5 ± 3.87 µM | 124 ± 8.7 µg/mL | – | – | – |
| CCN1CCN(CC(=O)Nc2ccc(/C=C(\C#N)c3ccc(OC)c(OC)c3)cc2)CC1 [12c2] | – | 48.8 ± 2.44 µM | 31.1 ± 4.38 µM | 21.6 ± 2.87 µM | 10.1 ± 2.18 µM | 29.7 ± 4.56 µM | 22.1 ± 2.64 µM | 85.1 ± 13.2 µg/mL | – | – | – |
| COc1ccc(/C(C#N)=C/c2ccc(NC(=O)CN3CCN(C)CC3)cc2C)cc1OC [12d1] | – | 40 ± 3.81 µM | 33.4 ± 0.84 µM | 6.67 ± 2.38 µM | 9.53 ± 0.93 µM | 54.5 ± 13.2 µM | 42.4 ± 1.91 µM | 124 ± 8.7 µg/mL | – | – | – |
| CCN1CCN(CC(=O)Nc2ccc(/C=C(\C#N)c3ccc(OC)c(OC)c3)c(C)c2)CC1 [12d2] | – | 15.3 ± 3.86 µM | 28.7 ± 3.14 µM | 24 ± 2.46 µM | 21.3 ± 0.71 µM | 38.4 ± 4.48 µM | 25.8 ± 2.56 µM | 85.1 ± 13.2 µg/mL | – | – | – |
| COc1cc(/C(C#N)=C/c2ccc(C)cc2)cc(OC)c1OC [compound 2, reference compound] | – | – | – | 0.61 ± 0.16 µM | – | – | – | 4 µg/mL | – | Poor water solubility | – |
| COc1cc(/C(C#N)=C/c2ccc(NC(=O)CN3CCN(C(C)C)CC3)cc2)cc(OC)c1OC.Cl [compound 15] | – | 15.3 ± 3.02 µM | 12.2 ± 0.93 µM | 8.32 ± 0.3 µM | 14.7 ± 1.09 µM | 21 ± 4.73 µM | 22.6 ± 1.36 µM | 8620 ± 525 µg/mL | – | – | – |
| COc1cc(/C(C#N)=C/c2ccc(NC(=O)CN3CCN(CCOCCO)CC3)cc2)cc(OC)c1OC [compound 16] | – | 14.8 ± 3.37 µM | 31.2 ± 4.73 µM | 12.6 ± 1.74 µM | 14.4 ± 2.38 µM | 18.9 ± 2.95 µM | 23.4 ± 3.61 µM | 2500 ± 266 µg/mL | – | – | more than 231 times |
| COc1cc(/C(C#N)=C/c2ccc(NC(=O)CN3CCN[C@@H](C)C3)cc2)cc(OC)c1OC [compound 17] | – | 22.6 ± 1.45 µM | 15.6 ± 1.87 µM | 10.3 ± 1.07 µM | 15 ± 2.32 µM | 17.4 ± 3.56 µM | 28.2 ± 5.16 µM | 504 ± 117 µg/mL | – | – | – |
| COc1cc(/C(C#N)=C/c2ccc(NC(=O)CN3CCNC(C)C3)cc2)cc(OC)c1OC.Cl (centres unmarked) [compound 18] | – | 11.5 ± 2.32 µM | 12.8 ± 2.96 µM | 9.73 ± 0.9 µM | 4.16 ± 0.97 µM | 14.1 ± 3.71 µM | 28.4 ± 4.52 µM | 1050 ± 67.3 µg/mL | – | – | – |
| COc1cc(/C(C#N)=C/c2ccc(NC(=O)CN3CCNC[C@@H]3C)cc2)cc(OC)c1OC.Cl [compound 19] | 200 to 202 °C | 5.58 ± 2.33 µM | 15.4 ± 1.88 µM | 8.18 ± 0.67 µM | 4.72 ± 0.99 µM | 16.3 ± 2.14 µM | 23 ± 2.05 µM | 79.5 ± 11.1 µg/mL | – | – | – |
| COc1cc(/C(C#N)=C/c2ccc(NC(=O)CN3CCNC[C@H]3C)cc2)cc(OC)c1OC.Cl [compound 20] | 200 to 202 °C | 15.2 ± 0.76 µM | 17.3 ± 2.31 µM | 10.5 ± 2.32 µM | 6.53 ± 1.67 µM | 17.8 ± 2.78 µM | 25 ± 2.94 µM | 111 ± 12.3 µg/mL | – | – | – |
